Key:
[1] = tested on: DU-145 cells; test: Cellular proliferation assay (MTS) in DU-145 cells; assay type: cell-based; conditions: Homo sapiens, 72 hours of incubation, read-out: IC50 values for selected compounds in DU-145 cells
Experimental: DU-145 cells were trypsinized, counted via Trypan blue method and resuspended in DMEM complete medium (10% FBS with Pen-strep antibiotics) as described in Lieu et al, Mol Cel Endorinol, 87:19-28, 1992. Cells were seeded at a density of 100 cells per well in 1001 volume of 96-well cell culture plate and were incubated overnight at 37° C. in 5% CO2 incubator. The next day, cells were given fresh media and the test compounds were added in different concentrations. After 72 hours of incubation, MTS reagent (procured from Promega) was added to the cells and they were incubated for an additional 2 hours. Finally, the plates read in the absorbance mode at 490 nm using an ELISA plate reader (Perkin Elmer Victor X3 plate reader). The % growth values were calculated as [(T−T0)/(C−T0)]×100, where T0 is the OD of cells at the time of compound addition, C is the vehicle control, T is the OD of the test concentrations at 72 hours. Percentage inhibition values were calculated using 100−([(T−T0)/(C−T0)]×100). IC50 values were calculated in graph pad prism software using dose response curve nonlinear regression method.

[2] = biological target: T1, WWP1 (Homo sapiens, UniProt Q9H0M0); test: In vitro WWP1-dependent ubiquitination of PTEN, western blot and LC-MS/MS; assay type: biochemical; conditions: 2 hours, indicated doses of inhibitor
T1 construct: purchased Ubiquigent 63-0034-025/30033/D
Experimental: In vitro ubiquitination reactions were carried out for 2 hours using the indicated doses of inhibitor. Increasing doses of inhibitor block PTEN substrate ubiquitination, which correlates with remaining free ubiquitin. The “0” concentration is DMSO only (0.5%, same as was used for compound doses). No E1 and No E3 negative controls are present (only free ubiquitin present). Analysis occurred by western blot using an anti-ubiquitin antibody. A fraction of these samples was digested with Trypsin/LysC and labeled with TMT quantification reagents prior to LC-MS/MS analysis.
In vitro ubiquitination reactions were carried out for 2 hours using the indicated doses of inhibitor. Increasing doses of inhibitor block PTEN substrate ubiquitination, which correlates with remaining free ubiquitin. The “0” concentration is DMSO only (0.5%, same as was used for compound doses). No E1 and No E3 negative controls are present (only free ubiquitin present). Analysis occurred by western blot using an anti-ubiquitin antibody.

[3] = tested on: PD-L1; test: Western blot of PD-L1 in Hs578T cells; assay type: cell-based, human; conditions: 48 hours, indicated concentrations of compound
Experimental: Hs578T cells (human triple negative breast cancer) were treated with the indicated concentration of COMPOUND 1 for 48 hours prior to harvesting. The “0” concentration is DMSO only (0.5%, same as was used for compound doses). […] Analysis occurred via western blot using the indicated antibodies. Quantification by densitometry of the bands from the western blot are presented for PD-L1/Vinculin (loading control) in the absence of interferon gamma, and glycosylated/non-glycosylated PD-L1 in the presence of interferon gamma.
(§1) The data presented here are consistent with the previous replicate in Hs578T cells, and the observation is preserved in another TNBC cell line, BT-20. COMPOUND 1 increases PD-L1 levels and the glycosylated PD-L1/non-glycosylated PD-L1 ratio. Methods are the same as the previous replicate, using the indicated doses.
Hs578T cells (human triple negative breast cancer) were treated with the indicated concentration of COMPOUND 6 for 48 hours before harvesting. The “0” concentration is DMSO only (0.5%, same as was used for compound doses). […] Analysis occurred via western blot using the indicated antibodies. PD-L1 protein levels were reduced relative to the vinculin loading control upon compound treatment. This effect is observed in the presence and absence of interferon gamma (IFN, 25 ng/mL in cell culture media during the drug treatment).
Hs578T cells (human triple negative breast cancer) were treated with the indicated concentration of COMPOUND 7 for 48 hours prior to harvesting. The “0” concentration is DMSO only (0.5%, same as was used for compound doses). […] Analysis occurred via western blot using the indicated antibodies. PD-L1 protein levels were reduced relative to the vinculin loading control upon 319-02 treatment.
The data presented here are consistent with the previous replicate in Hs578T cells. COMPOUND 7 reduces the PD-L1/vinculin loading control ratio. Methods are the same as the previous replicate, using the indicated doses.
Hs578T cells (human triple negative breast cancer) were treated with the indicated concentration of COMPOUND 8 for 48 hours and then harvested. The “0” concentration is DMSO only (0.5%, same as was used for compound doses). […] Analysis occurred via western blot using the indicated antibodies.
PD-L1-APC (BD Biosciences) and a matched isotype control were used to visualize PD-L1 cell surface expression by flow cytometry (1:250 dilution). As shown by western blot, the knockdown of WWP1 yielded increased PD-L1 protein levels, including an increase in the glycosylated band.
Total RNA was isolated using an RNeasy kit from Qiagen.

[4] = tested on: phosphorylated AKT and phosphorylated Ribosomal Protein S6; test: Western blot of AKT and S6 phosphorylation in BT-20 cells; assay type: cell-based, human; conditions: indicated doses
Excerpt: as §1, with “reduces the phospho-AKT/vinculin loading control” for “increases PD-L1 levels”, “phospho-S6/total S6 ratios.” for “the glycosylated PD-L1/non-glycosylated PD-L1 ratio.”
The data presented here are consistent with the previous replicate in Hs578T cells. COMPOUND 6 reduces the phospho-AKT/vinculin loading control and phospho-S6/total S6 ratios in BT-20 cells. Methods are the same as the previous replicate, using the indicated doses.

[5] = tested on: PD-L1; test: Western blot of PD-L1 in BT-20 cells; assay type: cell-based, human; conditions: indicated doses
Excerpt: as §1
The data presented here are consistent with the previous replicate in Hs578T cells. COMPOUND 6 reduces the PD-L1/vinculin loading control ratio in BT-20 cells. […] Methods are the same as the previous replicate, using the indicated doses.

T1 sequence (Q9H0M0 whole entry): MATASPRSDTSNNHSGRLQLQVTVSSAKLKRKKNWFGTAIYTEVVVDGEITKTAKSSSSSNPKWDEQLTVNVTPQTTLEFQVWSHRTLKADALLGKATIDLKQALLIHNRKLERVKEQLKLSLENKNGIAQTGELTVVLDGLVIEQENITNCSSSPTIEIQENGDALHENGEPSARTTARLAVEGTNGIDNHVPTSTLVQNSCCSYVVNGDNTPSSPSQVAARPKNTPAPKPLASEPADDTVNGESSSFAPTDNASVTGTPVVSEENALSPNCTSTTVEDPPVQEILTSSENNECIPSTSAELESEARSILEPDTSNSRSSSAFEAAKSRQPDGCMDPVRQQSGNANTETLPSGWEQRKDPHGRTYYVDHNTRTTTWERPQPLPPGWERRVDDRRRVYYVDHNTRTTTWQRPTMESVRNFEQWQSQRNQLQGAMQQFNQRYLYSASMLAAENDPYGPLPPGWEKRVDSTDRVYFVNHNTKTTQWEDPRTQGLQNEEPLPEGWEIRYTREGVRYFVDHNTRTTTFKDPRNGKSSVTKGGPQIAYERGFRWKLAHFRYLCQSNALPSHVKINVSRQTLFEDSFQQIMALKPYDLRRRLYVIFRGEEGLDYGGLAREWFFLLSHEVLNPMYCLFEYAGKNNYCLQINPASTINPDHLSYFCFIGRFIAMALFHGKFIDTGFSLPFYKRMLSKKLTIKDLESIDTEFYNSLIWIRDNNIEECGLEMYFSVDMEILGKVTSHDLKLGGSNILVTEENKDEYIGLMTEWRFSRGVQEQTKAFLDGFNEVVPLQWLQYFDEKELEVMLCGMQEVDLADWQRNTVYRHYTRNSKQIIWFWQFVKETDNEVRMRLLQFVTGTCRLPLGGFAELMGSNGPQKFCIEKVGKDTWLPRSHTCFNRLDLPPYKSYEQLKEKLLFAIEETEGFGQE

IC50 [1] [µM] | Compound | WWP1 dependent ubiquitination of PTEN (western blot, anti-ubiquitin) [2] | PD-L1 levels (relative to vinculin loading control) [3] | phospho-AKT/vinculin loading control ratio [4] | phospho-S6/total S6 ratio [4] | PD-L1 glycosylation (glycosylated/non-glycosylated PD-L1 ratio) [3] | PD-L1 glycosylation (glycosylated/non-glycosylated PD-L1 ratio) [5] | PD-L1 levels (PD-L1/vinculin loading control ratio) [5]
5.01 | C#CCN(CCO)C(=O)c1ccc2c(Cc3c[nH]c4ccccc34)c[nH]c2c1 [Compound 7, 3-((1H-indol-3-yl)methyl)-N-(2-hydroxyethyl)-N-(prop-2-yn-1-yl)-1H-indole-6-carboxamide] | Inhibits WWP1-Dependent Ubiquitination of PTEN, in a Dose-Dependent Manner | reduces | – | – | – | – | –
13.5 | C#Cc1ccc2c(C=O)cn(-c3ccccc3)c2c1 [Compound 1, 6-ethynyl-1-phenyl-1H-indole-3-carbaldehyde] | – | increases | reduces | reduces | increases | increases | increases
8.08 | C#CCNC(=O)c1ccc2c(Cc3c[nH]c4ccccc34)c[nH]c2c1 [Compound 6, 3-((1H-indol-3-yl)methyl)-N-(prop-2-yn-1-yl)-1H-indole-6-carboxamide] | – | reduced | reduces | reduces | – | probably reduces | reduces
